According to PubChem BioAssay AID1981 (Southern Research Specialized Biocontainment Screening …, 2009):

Tested on: S. Typhimurium PhoP-promoter GFP reporter counterscreen, fluorescence, 4 h
Assay: S. Typhimurium GFP fluorescence dose response in modified counterscreen for PhoP regulon inhibitor project (AID 1981)

Row | SMILES | IC50 [µM]
1 | COc1ccc(OC)c(C(=O)C2COC(=O)C2)c1 (stereo unspecified) | 134
2 | O=S1(=O)Nc2c(ccc3cccnc23)-c2ccccc21 | 3.01
3 | Clc1ccc(CN2CCC(c3nc4ccc(Cl)cc4[nH]3)CC2)cc1 | 51.7
4 | Cc1ccc(C(=O)N/N=C/c2cc(Br)ccc2O)cn1 | 68.4
5 | Cc1ccc(-c2c[n+](CC(=O)Nc3nc(-c4ccc(F)cc4)cs3)c3n2CCC3)cc1 | 72.5
6 | COc1cnc(-c2ccccn2)[nH]c1=O | 45.7
7 | O=[N+]([O-])c1ccc(O)c(/C=N/Nc2ccccn2)c1 | 12.5
8 | COc1c(F)c(F)cc2c(=O)c(C(=O)O)cn(C3CC3)c12 | 66.3
9 | OCCNCc1c(OCc2ccc(Cl)cc2)ccc2ccccc12 | 105
10 | O=S(=O)(Nc1cc(Sc2cccc3cccnc23)c(O)c2ccccc12)c1ccc(F)cc1 | 57.2
11 | CCN1CCN(C(c2cccnc2)c2cc(Cl)c3cccnc3c2O)CC1 (stereo unspecified) | 61.9
12 | CCn1cc(C(=O)O)c(=O)c2ccc(C)nc21 | 117
13 | CCn1cc(C(=O)NCCCO)c(=O)c2cc(F)c(N3CCN(C)CC3)cc21 | 46
14 | CCn1cc(C(=O)O)c(=O)c2cc(F)c(N3CCN(C(=S)NC(=O)c4ccccc4C)CC3)cc21 | 22.2
15 | COc1ccccc1CNCCc1ccc(F)cc1 | 61.4
16 | N=C(N)SCc1cn(-c2ccccc2)nc1-c1ccc(Br)cc1 | 36.1
17 | O=C(Nc1ccccc1)Nc1ncc([N+](=O)[O-])s1 | 53.4
18 | CCCCCOc1ccc(Br)cc1CSC(=N)N | 41.4
19 | Fc1ccc(Nc2nc(NCc3ccco3)c3ccccc3n2)cc1 | 32.6

Row | SMILES | IC50 [µM]
20 | Nc1cc2nsnc2cc1Br | 30.1
21 | CCCCCCCNC(=O)C1(CC2CC(c3cccc(Br)c3)=NO2)CCNCC1 (stereo unspecified) | 58.7
22 | COc1ccc2[nH]c3c(C)c4ccncc4c(C)c3c2c1 | 80.6
23 | CCOc1ccc(Nc2nc(N)c3ccccc3n2)cc1 | 109
24 | O=C(Nc1cccc(N=Cc2cc(Br)cc(Br)c2O)c1)c1ccco1 | 119
25 | CCCNC(=O)c1cn(CC)c2cc(N3CCN(C)CC3)c(F)cc2c1=O | 40.5
26 | Oc1ccc(CN2CCc3ccccc3C2)c2cccnc12 | 30.5
27 | CC(=O)Oc1cc2cccc(OC(C)=O)c(=O)c2c(OC(C)=O)c1OC(C)=O | 17.7
28 | Nc1ncn([C@@H]2O[C@H](CO)[C@@H](O)[C@H]2O)c(=O)n1 | 19.4
29 | Clc1ccc(CNCc2cccs2)cc1Cl | 123
30 | COc1ccc(/C=N/Nc2cc(C)nc3c(C)cccc23)cc1 | 93.3
31 | S=c1nc(C2CCCCC2)[nH][nH]1 | 136
32 | C=CC1=C(C(=O)O)N2C(=O)[C@@H](NC(=O)/C(=N\O)c3csc(N)n3)[C@H]2SC1 (stereo in doubt) | 33.8
33 | O=C1NC(=S)S/C1=C\C=C\c1ccc([N+](=O)[O-])o1 | 29.2
34 | C=C1c2cccc(O)c2C(O)=C2C(=O)[C@]3(O)C(O)=C(C(N)=O)C(=O)[C@@H](N(C)C)[C@@H]3[C@@H](O)[C@H]12 | 0.39
35 | Cc1ccc(C)n1-c1cc(S(=O)(=O)N2CCOCC2)ccc1N1CCCC1 | 138
36 | CC(Cc1ccccc1)NCc1ccccc1O (stereo unspecified) | 63.8
37 | CCCCN(CCCC)C(=O)c1cn(CC)c2cc(N3CCN(C)CC3)c(F)cc2c1=O | 14.2
38 | O=C(CN1CCCC1)N/N=C/c1c(O)ccc2ccccc12 | 70.6

Row | SMILES | IC50 [µM]
39 | O=C(Nc1ccccc1)Nc1ccc(Cl)c([N+](=O)[O-])c1 | 39.2
40 | CN1CCN(C(c2ccccn2)c2cc(Cl)c3cccnc3c2O)CC1 (stereo unspecified) | 67.3
41 | COC(=O)C1C(O)C(C)C(O)C(C)(O)/C=C\C=C(/C)C(=O)Nc2c(C)c(OC(C)=O)c3c(c2O)C(=O)C(C)=C2OCOC(=C23)/C(C)=C/C(C)(O)C(O)C(C)C1O (stereo unspecified) | 18.6
42 | Oc1ccc(NCc2ccccc2OCc2ccccc2F)cc1 | 79.6
43 | Oc1ccc(N2CCN(Cc3ccc(OCCCN4CCCCC4)cc3)CC2)cc1 | 110
44 | Nc1nonc1-n1nnc(C(=O)N/N=C/c2cc(Br)ccc2O)c1CSC1=NCCS1 | 145
45 | Oc1ccc(N=Cc2ccc(O)c(O)c2)cc1 | 67.6
46 | CCOC(=O)C1=Nc2ccccc2C1=[N+]=[N-] | 50
47 | CC[n+]1c(/C=C/N(C)c2ccccc2)n(-c2ccccc2)c2ccc(-c3nc4ccccc4s3)cc21 | 21.8
48 | NC1=NC[C@H](Cc2ccccc2)N1CCCCC1CCCCC1 | 61.1
49 | CCOc1ccc(NC(=O)c2ccc(NC(=O)c3cn4c5c(c(N6CCN(C)CC6)c(F)cc5c3=O)OCC4C)cc2)cc1 (stereo unspecified) | 4.1
50 | CC(C)COc1ccc(Cc2cnc(N)nc2N)cc1 | 127
51 | O=C1c2ccccc2C(=O)c2[nH]c(=O)[nH]c21 | 6.53
52 | C/C(=N\Nc1ncnc2sc(C)c(C)c12)c1ccccn1 | 33.4
53 | Cc1ccc(C(c2cc(Cl)c3cccnc3c2O)N2CCN(C)CC2)cc1 (stereo unspecified) | 41.1
54 | CN1CCN(c2cc3c(cc2F)c(=O)c(C(=O)O)cn3CCF)CC1 | 0.51
55 | COc1ccc(C(C[N+](=O)[O-])n2nc(C)cc2C)cc1 (stereo unspecified) | 21.6
56 | CC(=O)NC(c1ccc2ccccc2c1)c1ccc2cccnc2c1O (stereo unspecified) | 46.2
